US5348956A, “Substituted cyclopropylamino-1,3,5-triazines” (UCB S.A., priority 1991, dated 1994)
Where two headings read alike, the source gives them in different places.

Tests used:
[1] = system: bronchospasm induced by serotonin; assay: bronchospasmolytic activity (Konzett and Roessler), bronchospasm induced by serotonin; format: in vivo, Dunkin-Hartley guinea-pig; details: Cavia porcellus, read-out: Doses (ID50), Serotonin
Experimental: (§1) This activity was measured in the Dunkin-Hartley guinea-pig by the method of H. KONZETT and […] (Naunyn Schmiedebergs Arch. exp. Path. […] The anesthetized (urethane) and curarized (gallamine) guinea-pig is placed under assisted respiration. The endotracheal pressure is recorded. […] The compound to be tested is also administered intravenously two minutes before the administration of the spasmogen and then in 3 to 4 cumulative doses in increasing amounts at intervals of 15 minutes. Six animals per compound to be tested and per spasmogen are used.

[2] = system: bronchospasm induced by histamine; assay: bronchospasmolytic activity (Konzett and Roessler), bronchospasm induced by histamine; format: in vivo, Dunkin-Hartley guinea-pig; details: Cavia porcellus, read-out: Doses (ID50), Histamine
Experimental: as §1

[3] = system: bronchospasm induced by acetylcholine; assay: bronchospasmolytic activity (Konzett and Roessler), bronchospasm induced by acetylcholine; format: in vivo, Dunkin-Hartley guinea-pig; details: Cavia porcellus, read-out: Doses (ID50), Acetylcholine
Experimental: as §1

[4] = system: plantar edema induced by immune complexes; assay: "reverse passive Arthus" (RPA) test, anti-inflammatory and anti-edema activity; format: in vivo, Sprague-Dawley rat; details: Rattus norvegicus, intravenous
Experimental: The reaction between a soluble antigen and antibodies in the organism may lead to an acute inflammatory reaction accompanied by release of histamine, modification of vascular permeability and formation of a localized edema. […] To this end, the Arthus reaction is induced by subplantar administration of 0.1 ml of heterologous antivalbumin reaginic serum into the right hind paw and by simultaneous intravenous injection of 1 ml/kg ovalbumin (25 mg/ml). The compound to be tested is administered intravenously 30 seconds before induction of the Arthus reaction, in a least 3 different doses. A group of 6 rats is used per dose of compound to be tested. The volume of the paw is measured by plethysmometry before the Arthus reaction and 3 to 5 hours after induction of the Arthus reaction, both in the control animals and in the treated animals. The effect of a compound on the reduction in the edema for each dose and at each measurement time (3 hours and 5 hours) is expressed in % of the edema observed in the control animals. The doses of the compounds (ID30 in μmole/kg) which inhibit by 30%, on average over all the animals, the volume of the edema observed in the control animals are given in Table VII below.

[5] = system: anaphylactic release of histamine, guinea-pig lung sections; assay: inhibition of the anaphylactic release of histamine (proper effect); format: cell-based, Dunkin-Hartley guinea-pigs; details: Cavia porcellus, in vitro, read-out: Minimum inhibitory dose (MID)
Experimental: (§2) Dunkin-Hartley guinea-pigs which are first passively sensitized by an intravenous injection of 1 ml of isologous antiovalbumin serum are used. Twenty-four hours after the injection, the lungs are then perfused with a Tyrode buffer to evacuate the blood, and then removed and cut into sections of 1 mm. These sections are divided up into test tubes (3 sections per tube) to give 10 experimental groups of lung sections per guinea-pig. A "positive" control group of lung sections is stimulated by addition of an ovalbumin solution (0.1 mg/ml) to induce the anaphylactic release of histamine and serves to determine the maximum amount of histamine (100%) which can be released. A "negative" control group which is not stimulated by ovalbumin serves to determine the naturally released amount of histamine (spontaneous release). In three other groups, the lung sections are incubated at 37° C. for 30 minutes in the ovalbumin solution in the presence of three different doses of the compound to be tested (one dose per group). […] At this dose, isoprenaline inhibits the release of histamine by 30 to 40%, which is verified on a control group treated only with isoprenaline alone at this dose. In addition, a supplementary control group which is not stimulated by ovalbumin is used to detect a possible spontaneous release of histamine by the highest dose of the compound tested. In each group, the histamine released in the incubation medium is measured by spectrofluorometry (D. P. EVANS et al., Life Sci., 12, (1973), 327-336).

[6] = system: anaphylactic release of histamine, guinea-pig lung sections; assay: potentiation of the inhibition of anaphylactic histamine release by isoprenaline; format: cell-based, Dunkin-Hartley guinea-pigs; details: with isoprenaline 10^-7 mole per liter
Experimental: as §2

[7] = system: longitudinal muscles of the ileum contracted by histamine; assay: potentiation of the myorelaxing effect of isoprenaline on the ileum; format: cell-based, Dunkin-Hartley guinea-pigs; details: with isoprenaline 10^-7 mole/l; histamine 3.2 μmoles/l
Experimental: (cf. R. A. TURNER, "Screening Methods in Pharmacology", Ed. Acad. Press, San Diego, 1965, chapter IV, pages 43-47). […] Inhibition cycle: When the successive contractions induced by the histamine injections have become reproducible, the compound to be tested is injected immediately after the second wash. The contraction induced by the following injection of histamine is measured and compared with the average of the three preceding contractions caused by the repeated injections of histamine (control contractions). From the result obtained, the percentage inhibition of the contraction is calculated. Several cycles of histamine injection are then performed again, until the contractions of the muscle become reproducible again; the muscle is then ready for testing of another compound. The potentiating effect of a compound is measured in the course of a so-called "potentiation" cycle, which comprises three successive inhibition cycles. […] In the course of the second inhibition cycle, the percentage inhibition of the contraction obtained with the compound to be tested, injected alone at a given dose, is determined. In the third inhibition cycle, isoprenaline and the compound to be tested are injected simultaneously, and the percentage inhibition of the contraction is calculated for the dose used of the compound tested. The same experiments are repeated for each of the doses of the compounds tested.

[8] = system: PMN granulocytes; assay: inhibition of the stimulation of PMN granulocytes (chemiluminescence); format: cell-based, Rat; details: for activity at 1 µM: FMLP 3.2×10^-7 mole/liter
From the text: Polymorphonuclear neutrophil granulocytes (PMN) are cells which are mobilized during inflammatory phenomena and which can be stimulated by various compounds, such as, for example, formylmethionyl-leucylphenylalanine (FMLP) or prostaglandins E (PGE1). The PMN granulocytes respond to these extracellular stimuli with an activation of the oxygen metabolism with release of toxic oxygenated metabolites. An excessive response of the PMN granulocytes may be the cause of a painful inflammation and is also accompanied by a reduction in the level of cyclic adenosine monophosphate (cAMP) in these granulocytes. Consequently, compounds which inhibit the respiratory burst of PMN granulocytes or which increase the level of cAMP can be regarded as very important in the treatment of arthritis and asthma. […] Rat PMN granulocytes (5×10^6 /ml) are preincubated in a phosphate buffer ([…], pH 7.4), containing luminol at a concentration of 10^-5 mole per liter, for 15 minutes at 37° C. and then for 5 minutes in the presence of the compound to be treated at a concentration of 10^-6 mole/liter. […] The luminescence which results from the stimulation is measured by means of an LKB 1251 luminometer according to the method of […] and […] (Infection and Immunology, 37, (1982), 34-39). An experimental cycle lasts 38 seconds. The reaction is repeated 9 times for each compound to be tested and the average of the results obtained is calculated.

[9] = system: cAMP in PMN granulocytes; assay: increase in the level of cAMP in PMN granulocytes; format: cell-based, Rat; details: […]10^-6 mole per liter; PGE1 10^-6 mole/liter; control 4.3
From the text: Polymorphonuclear neutrophil granulocytes (PMN) are cells which are mobilized during inflammatory phenomena and which can be stimulated by various compounds, such as, for example, formylmethionyl-leucylphenylalanine (FMLP) or prostaglandins E (PGE1). The PMN granulocytes respond to these extracellular stimuli with an activation of the oxygen metabolism with release of toxic oxygenated metabolites. An excessive response of the PMN granulocytes may be the cause of a painful inflammation and is also accompanied by a reduction in the level of cyclic adenosine monophosphate (cAMP) in these granulocytes. […] The reaction is then stopped by addition of 1 ml of propanol. After centrifugation at 15,000 g for 3 minutes, the supernatant is recovered and evaporated and the amount of cAMP in the residue is determined by radioimmunological assay according to the process recommended by the supplier of the reagent used for this purpose (Amersham). A control test is carried out under the same conditions, but in the absence of the compound to be tested.

[10] = multiple-trial passive avoidance: learning; format: in vivo, male Sprague-Dawley rats
Experimental: To evaluate whether a compound can promote learning, the following test is carried out. […] Rats which remain on the mat for this period have acquired the avoidance reflex and are replaced in their original cage without receiving the electric shock. […] The results obtained in the test used to evaluate learning are given in columns 3 and 4. […] The results were analyzed by the Student test.

[11] = toxicity, Irwin's test; format: in vivo; details: i.p.; death of two animals out of three within 48 hours
Experimental: Progressive doses of the compound to be tested are administered intraperitoneally to groups of three mice until the lethal dose is reached (dose which causes the death of two animals out of three within 48 hours).

[12] = system: amnesia induced by scopolamine; assay: multiple-trial passive avoidance: mnemic retention, amnesia induced by scopolamine
Experimental: To this end, the method of multiple-trial passive avoidance has been used. […] The test is carried out on male Sprague-Dawley rats (160-200 g). which are kept in standard cages throughout the experiment. The apparatus used is a transparent square cage with 35 cm sides and 25 cm high, fitted with a grid floor which can be electrified. A rubber insulating mat (10×17 cm) is placed on the floor in one of the corners of the cage.
Each animal is subjected to four tests at times 0, 4, 24 and 28 hours. In the first test (time 0), the animal is placed on the rubber mat and the time which it takes to decide to leave this position to explore the cage is recorded. After 20 seconds of exploration, the rat receives an electric shock (3 seconds duration) in the paws, causing an escape reaction. The rat is immediately removed from the apparatus and replaced in its original cage. In the course of the three subsequent tests (times: 4, 24 and 28 hours), the animal is replaced on the rubber mat and the time taken to leave this position is recorded. As soon as the four paws of the animal rest on the grid, it receives an electric shock and is removed immediately from the apparatus.
At the start of the experiment, the rats are divided into 4 homogeneous groups of 15 animals. Thirty minutes before each test, each group of animals is subjected to a predetermined treatment:
Groups 1 and 2 are used in the first experiment (learning) and groups 3 and 4 in the second experiment (mnemic retention).
The differences found are analyzed statistically by the Mann-Whitney method.

[13] = 3 hours after induction of the Arthus reaction, read-out: Dose (ID30), 3 hours
[14] = 5 hours after induction of the Arthus reaction, read-out: Dose (ID30), 5 hours
[15] = Rattus norvegicus, 10^-6 mole/l, read-out: Residual chemiluminescence
[16] = intravenous, serotonin-induced bronchospasm
[17] = intravenous, histamine-induced bronchospasm
[18] = intravenous, acetylcholine-induced bronchospasm

Structure (SMILES)	ED30 [4, 13] [µmol/kg]	ED30 [4, 14] [µmol/kg]	minimal effective concentration [5] [µM]	Minimum potentiating dose (MPD) [6] [µmol/L]	Minimum potentiating dose (MPD) [7] [µmol/L]	activity at 1 µM [8, 15] [%]	ED50 [1, 16] [µmol/kg]	ED50 [2, 17] [µmol/kg]	ED50 [3, 18] [µmol/kg]	Lethal dose [11] [mg/kg]	also measured
Cn1c(=O)c2[nH]cnc2n(C)c1=O [theophylline, reference compound]	18	10	100	1000.0	1000.0	100	–	–	–	–	ED50 ([1]; iv): 4.6 µmol/kg; ED50 ([2]; iv): 5.6 µmol/kg; ED50 ([3]; iv): 10 µmol/kg; inhibition of the stimulation of PMN granulocytes ([8]; 10^-6 mole/l): completely inactive; activity at 100 µM ([8]; Rattus norvegicus, 10^-4 mole/l, read-out: Residual chemiluminescence): 65%; Amount of cAMP produced [9]: 5.0 picomoles per 10^7 cells
CCCc1nc(NC2CC2)nc(N2CC(O)C2)n1 [Compound 15]	39	4	10	3.2	3.2	70	0.2	0.08	0.3	> 498	Learning, average number of trials, group 2 ([10]; 2.5 mg/kg i.p.): 1.9 trials; Period of remaining on the mat, group 4 ([12]; 4 hours, 2.5 mg/kg i.p. + 0.5 mg scopolamine): 19.5 s; Period of remaining on the mat, group 4 ([12]; 24 hours, 2.5 mg/kg i.p. + 0.5 mg scopolamine): 94.3 s; Period of remaining on the mat, group 4 ([12]; 28 hours, 2.5 mg/kg i.p. + 0.5 mg scopolamine): 112.7 s; Period of remaining on the mat, group 4 ([12]; time 0, 2.5 mg/kg i.p. + 0.5 mg scopolamine): 9.8 s
CNC(=O)Oc1ccc2c(c1)[C@]1(C)CCN(C)[C@@H]1N2C [physostigmine, reference compound]	–	–	–	–	–	–	–	–	–	–	Learning, average number of trials, group 2 ([10]; 0.4 mg/kg i.p.): 2.3 trials; Period of remaining on the mat, group 4 ([12]; 4 hours, 0.4 mg/kg i.p. + 0.5 mg scopolamine): 17.8 s; Period of remaining on the mat, group 4 ([12]; 24 hours, 0.4 mg/kg i.p. + 0.5 mg scopolamine): 56.2 s; Period of remaining on the mat, group 4 ([12]; 28 hours, 0.4 mg/kg i.p. + 0.5 mg scopolamine): 53.4 s; side effects / toxicity at the active dose ([12]; at the dose active against scopolamine amnesia): at a dose which has side effects and is very close to the toxic dose; action against the amnesic effect of scopolamine ([12]; similar to that of the compounds according to the invention): favorable action against the amnesic effect of scopolamine; Period of remaining on the mat, group 4 ([12]; time 0, 0.4 mg/kg i.p. + 0.5 mg scopolamine): 1.9 s
CCc1nc(NC2CC2)nc(N2CC3CCC(C2)O3)n1 [Compound 10]	–	–	3.2	0.32	1.0	56	0.3	0.1	0.5	311.8	Period of remaining on the mat, group 4 ([12]; 4 hours, […] i.p. + 0.5 mg scopolamine): 20.3 s; Period of remaining on the mat, group 4 ([12]; 24 hours, […] i.p. + 0.5 mg scopolamine): 78.9 s; Period of remaining on the mat, group 4 ([12]; 28 hours, […] i.p. + 0.5 mg scopolamine): 142.0 s; Period of remaining on the mat, group 4 ([12]; time 0, […] i.p. + 0.5 mg scopolamine): 5.7 s
Cc1nc(NC2CC2)nc(N2CC3CCC(C2)O3)n1.Cl [Compound 9, 2-Cyclopropylamino-4-methyl-6-(8-oxa-3-azabicyclo[3,2,1]oct-3-yl)-1,3,5-triazine hydrochloride]	3.4	4.4	3.2	3.2	10.0	82	1	0.4	2.1	297.8	Learning, average number of trials, group 2 ([10]; 3.0 mg/kg i.p.): 2.9 trials; Period of remaining on the mat, group 4 ([12]; 4 hours, 3.0 mg/kg i.p. + 0.5 mg scopolamine): 17.3 s; Period of remaining on the mat, group 4 ([12]; 24 hours, 3.0 mg/kg i.p. + 0.5 mg scopolamine): 38.1 s; Period of remaining on the mat, group 4 ([12]; 28 hours, 3.0 mg/kg i.p. + 0.5 mg scopolamine): 65.2 s; Period of remaining on the mat, group 4 ([12]; time 0, 3.0 mg/kg i.p. + 0.5 mg scopolamine): 3.6 s
